{
  "source": "patent US10167262B2",
  "about": "“Herbicidal substituted 3-arylpyrazoles” (FMC CORPORATION, priority 2014, dated 2019)",
  "assay_type_in_all_cases": "in vivo",
  "key": {"[1]": {"system": "windgrass (Apera spica-venti)", "test": "Test C postemergence greenhouse test, plant response rating 0-100", "in_short": "(§1)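 Postemergence spray onto 1–4-leaf potted seedlings, greenhouse incubation 13–15 days. Visual percent-control rating (0–100) against untreated plants.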"}, "[2]": {"system": "winter barley (Hordeum vulgare)", "test": "Test C postemergence greenhouse test, plant response rating 0-100", "in_short": "as §1"}, "[3]": {"system": "lambsquarters (Chenopodium album)", "test": "Test C pre-/postemergence greenhouse test, plant response rating 0-100", "conditions": "Postemergence", "in_short": "(§2)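 Visual rating vs controls after 13–15 d greenhouse; 0 = no effect, 100 = complete control. Pre: seeds in loam/sand, treated at planting. Post: seedlings 2–18 cm (1–4 leaf) in peat-based mix. Compounds in surfactant-containing non-phytotoxic solvent.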"}, "[4]": {"system": "blackgrass (Alopecurus myosuroides)", "test": "Test C pre-/postemergence greenhouse test, plant response rating 0-100", "conditions": "Postemergence", "in_short": "as §2"}, "[5]": {"system": "winter wheat (Triticum aestivum)", "test": "Test C pre-/postemergence greenhouse test, plant response rating 0-100", "conditions": "Postemergence", "in_short": "as §2"}, "corn (Zea mays)": {"system": "corn (Zea mays)", "test": "Test C pre-/postemergence greenhouse test, plant response rating 0-100", "conditions": "Postemergence", "in_short": "as §2"}, "[6]": {"system": "large (Lg) crabgrass (Digitaria sanguinalis)", "test": "Test C pre-/postemergence greenhouse test, plant response rating 0-100", "conditions": "Postemergence", "in_short": "as §2"}, "[7]": {"system": "velvetleaf (Abutilon theophrasti)", "test": "Test C pre-/postemergence greenhouse test, plant response rating 0-100", "conditions": "Postemergence", "in_short": "as §2"}, "[8]": {"system": "pigweed (Amaranthus retroflexus)", "test": "Test C pre-/postemergence greenhouse test, plant response rating 0-100", "conditions": "Postemergence", "in_short": "as §2"}, "[9]": {"system": "galium (catchweed bedstraw, Galium aparine)", "test": "Test C pre-/postemergence greenhouse test, plant response rating 0-100", "conditions": "Postemergence", "in_short": "as §2"}, "[10]": {"system": "yellow nutsedge (Cyperus esculentus)", "test": "Test C pre-/postemergence greenhouse test, plant response rating 0-100", "conditions": "Postemergence", "in_short": "as §2"}, "[11]": {"system": "ragweed (common ragweed, Ambrosia elatior)", "test": "Test C pre-/postemergence greenhouse test, plant response rating 0-100", "conditions": "Postemergence", "in_short": "as §2"}, "[12]": {"system": "johnsongrass (Sorghum halepense)", "test": "Test C pre-/postemergence greenhouse test, plant response rating 0-100", "conditions": "Postemergence", "in_short": "as §2"}, "[13]": {"system": "morningglory (Ipomoea coccinea)", "test": "Test C pre-/postemergence greenhouse test, plant response rating 0-100", "conditions": "Postemergence", "in_short": "as §2"}},
  "data": [
    {"smiles": "CCn1cc(C(=NN2CCCC2)c2ccccc2)c(-c2cc(Cl)cc(Cl)c2)n1", "note": "[Compound 37]", "values": [
      {"measurement": "Plant response rating (0 to 100), Windgrass", "setting": "[1]; 62 g ai/ha", "result": 0},
      {"measurement": "Plant response rating (0 to 100), Windgrass", "setting": "[1]; 125 g ai/ha", "result": 0},
      {"measurement": "Plant response rating, Windgrass", "setting": "[1]; 250 g ai/ha, scale 0 to 100", "result": 0},
      {"measurement": "Plant response rating (0 to 100), Barley", "setting": "[2]; 31 g ai/ha", "result": 0},
      {"measurement": "Plant response rating (0 to 100), Barley", "setting": "[2]; 62 g ai/ha", "result": 0},
      {"measurement": "Plant response rating (0 to 100), Barley", "setting": "[2]; 125 g ai/ha", "result": 0},
      {"measurement": "Plant response rating, Barley", "setting": "[2]; 250 g ai/ha, scale 0 to 100", "result": 0},
      {"measurement": "Plant response rating (0 to 100), Lambsquarters", "setting": "[3]; 62 g ai/ha", "result": 45},
      {"measurement": "Plant response rating (0 to 100), Lambsquarters", "setting": "[3]; 125 g ai/ha", "result": 55},
      {"measurement": "Plant response rating, Lambsquarters", "setting": "[3]; 250 g ai/ha, scale 0 to 100", "result": 65},
      {"measurement": "Plant response rating (0 to 100), Blackgrass", "setting": "[4]; 31 g ai/ha", "result": 0},
      {"measurement": "Plant response rating (0 to 100), Blackgrass", "setting": "[4]; 62 g ai/ha", "result": 0},
      {"measurement": "Plant response rating (0 to 100), Blackgrass", "setting": "[4]; 125 g ai/ha", "result": 0},
      {"measurement": "Plant response rating, Blackgrass", "setting": "[4]; 250 g ai/ha, scale 0 to 100", "result": 0},
      {"measurement": "Plant response rating (0 to 100), Wheat", "setting": "[5]; 62 g ai/ha", "result": 0},
      {"measurement": "Plant response rating (0 to 100), Wheat", "setting": "[5]; 125 g ai/ha", "result": 0},
      {"measurement": "Plant response rating, Wheat", "setting": "[5]; 250 g ai/ha, scale 0 to 100", "result": 0},
      {"measurement": "Plant response rating (0 to 100), Corn", "setting": "corn (Zea mays); 31 g ai/ha", "result": 0},
      {"measurement": "Plant response rating (0 to 100), Corn", "setting": "corn (Zea mays); 62 g ai/ha", "result": 0},
      {"measurement": "Plant response rating (0 to 100), Corn", "setting": "corn (Zea mays); 125 g ai/ha", "result": 5},
      {"measurement": "Plant response rating, Corn", "setting": "corn (Zea mays); 250 g ai/ha, scale 0 to 100", "result": 5},
      {"measurement": "Plant response rating (0 to 100), Crabgrass, Large", "setting": "[6]; 31 g ai/ha", "result": 10},
      {"measurement": "Plant response rating (0 to 100), Crabgrass, Large", "setting": "[6]; 62 g ai/ha", "result": 10},
      {"measurement": "Plant response rating (0 to 100), Crabgrass, Large", "setting": "[6]; 125 g ai/ha", "result": 10},
      {"measurement": "Plant response rating, Crabgrass, Large", "setting": "[6]; 250 g ai/ha, scale 0 to 100", "result": 10},
      {"measurement": "Plant response rating (0 to 100), Velvetleaf", "setting": "[7]; 62 g ai/ha", "result": 75},
      {"measurement": "Plant response rating (0 to 100), Velvetleaf", "setting": "[7]; 125 g ai/ha", "result": 80},
      {"measurement": "Plant response rating, Velvetleaf", "setting": "[7]; 250 g ai/ha, scale 0 to 100", "result": 98},
      {"measurement": "Plant response rating (0 to 100), Pigweed", "setting": "[8]; 62 g ai/ha", "result": 75},
      {"measurement": "Plant response rating (0 to 100), Pigweed", "setting": "[8]; 125 g ai/ha", "result": 80},
      {"measurement": "Plant response rating, Pigweed", "setting": "[8]; 250 g ai/ha, scale 0 to 100", "result": 100},
      {"measurement": "Plant response rating (0 to 100), Galium", "setting": "[9]; 31 g ai/ha", "result": 0},
      {"measurement": "Plant response rating (0 to 100), Galium", "setting": "[9]; 62 g ai/ha", "result": 0},
      {"measurement": "Plant response rating (0 to 100), Galium", "setting": "[9]; 125 g ai/ha", "result": 0},
      {"measurement": "Plant response rating, Galium", "setting": "[9]; 250 g ai/ha, scale 0 to 100", "result": 0},
      {"measurement": "Plant response rating (0 to 100), Nutsedge, Yellow", "setting": "[10]; 62 g ai/ha", "result": 10},
      {"measurement": "Plant response rating (0 to 100), Nutsedge, Yellow", "setting": "[10]; 125 g ai/ha", "result": 10},
      {"measurement": "Plant response rating, Nutsedge, Yellow", "setting": "[10]; 250 g ai/ha, scale 0 to 100", "result": 10},
      {"measurement": "Plant response rating (0 to 100), Ragweed", "setting": "[11]; 62 g ai/ha", "result": 5},
      {"measurement": "Plant response rating (0 to 100), Ragweed", "setting": "[11]; 125 g ai/ha", "result": 5},
      {"measurement": "Plant response rating, Ragweed", "setting": "[11]; 250 g ai/ha, scale 0 to 100", "result": 20},
      {"measurement": "Plant response rating (0 to 100), Johnsongrass", "setting": "[12]; 62 g ai/ha", "result": 0},
      {"measurement": "Plant response rating (0 to 100), Johnsongrass", "setting": "[12]; 125 g ai/ha", "result": 0},
      {"measurement": "Plant response rating, Johnsongrass", "setting": "[12]; 250 g ai/ha, scale 0 to 100", "result": 0},
      {"measurement": "Plant response rating (0 to 100), Morningglory", "setting": "[13]; 62 g ai/ha", "result": 0},
      {"measurement": "Plant response rating (0 to 100), Morningglory", "setting": "[13]; 125 g ai/ha", "result": 0},
      {"measurement": "Plant response rating, Morningglory", "setting": "[13]; 250 g ai/ha, scale 0 to 100", "result": 0}
    ]}
  ]
}
